# Assay results taken from patent US20250332178A1, “METHODS OF TREATING MYCOBACTERIAL INFECTIONS USING TETRACYCLINE COMPOUNDS” (priority 2018, published 2025).
# Read-outs that look alike come from different tables or passages of the source.
# Columns and labels:
# M. avium = experiment: MIC (CLSI broth dilution), slow-growing NTM isolates; assay type: cell-based; settings: Mycobacterium avium, read-out: MIC
# M. smegmatis group = experiment: MIC (CLSI broth dilution), RGM isolates; assay type: cell-based; settings: Mycolicibacterium smegmatis, read-out: MIC
# M. fortuitum group = experiment: MIC (CLSI broth dilution), RGM isolates; assay type: cell-based; settings: Mycolicibacterium fortuitum, read-out: MIC
# M. arupense = experiment: MIC (CLSI broth dilution), slow-growing NTM isolates; assay type: cell-based; settings: isolate 11, Other; read-out: MIC
# M. simiae = experiment: as above; assay type: cell-based; settings: read-out: MIC
# [1] = tested on: slow-growing NTM isolates; experiment: MIC (CLSI broth dilution), all slow-growing NTM isolates; assay type: cell-based, nontuberculous mycobacteria; settings: all slow-growing NTM isolates; for MIC50: read-out: MIC50; for MIC90: read-out: MIC90
# M. chelonae = experiment: MIC (CLSI broth dilution), RGM isolates; assay type: cell-based; settings: Mycobacteroides chelonae, read-out: MIC
# M. mucogenium group = experiment: MIC (CLSI broth dilution), RGM isolates; assay type: cell-based; settings: read-out: MIC
# M. intracellulare = experiment: MIC (CLSI broth dilution), slow-growing NTM isolates; assay type: cell-based; settings: Mycobacterium intracellulare, read-out: MIC
# M. immunogenum group = experiment: MIC (CLSI broth dilution), RGM isolates; assay type: cell-based; settings: M. immunogenum, read-out: MIC
# M. abscessus complex = experiment: MIC (CLSI broth dilution), RGM isolates; assay type: cell-based; settings: Mycobacteroides abscessus, read-out: MIC
# M. chimaera = experiment: MIC (CLSI broth dilution), slow-growing NTM isolates; assay type: cell-based; settings: read-out: MIC
# [2] = tested on: rapid-growing mycobacteria (RGM) isolates; experiment: MIC (CLSI broth dilution), all RGM isolates; assay type: cell-based, nontuberculous mycobacteria; settings: all 50 RGM isolates; for MIC50: read-out: MIC50; for MIC90: read-out: MIC90
# [3] = isolate 49, M. smegmatis group, M. goodii
# [4] = isolate 50, M. smegmatis group, M. wolinskyi
# [5] = isolate 23, M. fortuitum group, M. fortuitum
# [6] = isolate 24, M. fortuitum group, M. fortuitum
# [7] = isolate 25, M. fortuitum group, M. fortuitum
# [8] = isolate 26, M. fortuitum group, M. porcinum
# [9] = isolate 27, M. fortuitum group, M. porcinum
# [10] = isolate 28, M. fortuitum group, M. porcinum/M. boenickei
# [11] = isolate 29, M. fortuitum group, M. porcinum/M. boenickei
# [12] = isolate 30, M. fortuitum group, M. porcinum/M. boenickei
# [13] = isolate 31, M. fortuitum group, M. senegalense
# [14] = isolate 32, M. fortuitum group, M. senegalense
# [15] = isolate 33, M. fortuitum group, M. senegalense
# [16] = isolate 34, M. fortuitum group, M. senegalense
# [17] = isolate 39, M. mucogenicum group, M. mucogenicum
# [18] = isolate 40, M. mucogenicum group, M. mucogenicum
# [19] = isolate 41, M. mucogenicum group, M. mucogenicum
# [20] = isolate 42, M. mucogenicum group, M. mucogenicum
# [21] = isolate 43, M. mucogenicum group, M. phocaicum
# [22] = isolate 44, M. mucogenicum group, M. phocaicum
# [23] = isolate 45, M. mucogenicum group, M. phocaicum
# [24] = isolate 46, M. mucogenicum group, M. phocaicum
# [25] = isolate 47, M. mucogenicum group, M. phocaicum
# [26] = isolate 48, M. mucogenicum group, M. phocaicum
# [27] = isolate 35, M. immunogenum group
# [28] = isolate 36, M. immunogenum group
# [29] = isolate 37, M. immunogenum group
# [30] = isolate 38, M. immunogenum group
# [31] = isolate 1, M. abscessus complex, erm gene type MAB30
# [32] = isolate 2, M. abscessus complex, erm gene type MAB30
# [33] = isolate 3, M. abscessus complex, erm gene type MAB30
# [34] = isolate 4, M. abscessus complex, erm gene type massiliense
# [35] = isolate 5, M. abscessus complex, erm gene type massiliense/subsp. abs hybrid
# [36] = isolate 6, M. abscessus complex, erm gene type Type 1 abscessus
# [37] = isolate 7, M. abscessus complex, erm gene type Type 1 abscessus
# [38] = isolate 8, M. abscessus complex, erm gene type Type 1 abscessus
# [39] = isolate 9, M. abscessus complex, erm gene type Type 1 abscessus
# [40] = isolate 10, M. abscessus complex, erm gene type Type 1 abscessus
# [41] = isolate 11, M. abscessus complex, erm gene type Type 6 abscessus
# [42] = isolate 12, M. abscessus complex, erm gene type Type 6 abscessus
# [43] = isolate 13, M. abscessus complex, erm gene type Type 6 abscessus
# [44] = isolate 14, M. abscessus complex, erm gene type Type 6 abscessus
# [45] = isolate 15, M. abscessus complex, erm gene type Type 7 abscessus
# [46] = isolate 16, M. abscessus complex, erm gene type Type 7 abscessus
# [47] = isolate 17, M. abscessus complex, erm gene type Type 8 abscessus
smiles,measurement,setting,value
CN(C)c1cc(CNCC(C)(C)C)c(O)c2c1C[C@H]1C[C@H]3[C@H](N(C)C)C(O)=C(C(N)=O)C(=O)[C@@]3(O)C(O)=C1C2=O [OMC],MIC,"M. avium; isolate 1, MAC",> 16 µg/mL
same,MIC,"M. avium; isolate 2, MAC",> 16 µg/mL
same,MIC,"M. avium; isolate 3, MAC",> 16 µg/mL
same,MIC,M. smegmatis group; [3],0.06 µg/mL
same,MIC,M. smegmatis group; [4],0.5 µg/mL
same,MIC,M. fortuitum group; [5],0.12 µg/mL
same,MIC,M. fortuitum group; [6],0.12 µg/mL
same,MIC,M. fortuitum group; [7],0.12 µg/mL
same,MIC,M. fortuitum group; [8],0.06 µg/mL
same,MIC,M. fortuitum group; [9],0.12 µg/mL
same,MIC,M. fortuitum group; [10],0.25 µg/mL
same,MIC,M. fortuitum group; [11],0.25 µg/mL
same,MIC,M. fortuitum group; [12],0.12 µg/mL
same,MIC,M. fortuitum group; [13],0.25 µg/mL
same,MIC,M. fortuitum group; [14],0.12 µg/mL
same,MIC,M. fortuitum group; [15],0.12 µg/mL
same,MIC,M. fortuitum group; [16],0.12 µg/mL
same,MIC,M. arupense,> 16 µg/mL
same,MIC,"M. simiae; isolate 13, Other",> 16 µg/mL
same,MIC,"M. simiae; isolate 14, Other",> 16 µg/mL
same,MIC,"M. simiae; isolate 15, Other",> 16 µg/mL
same,MIC50,[1],> 16 µg/mL
same,MIC90,[1],> 16 µg/mL
same,MIC,"M. chelonae; isolate 18, M. chelonae",0.12 µg/mL
same,MIC,"M. chelonae; isolate 19, M. chelonae",0.25 µg/mL
same,MIC,"M. chelonae; isolate 20, M. chelonae",0.12 µg/mL
same,MIC,"M. chelonae; isolate 21, M. chelonae",0.12 µg/mL
same,MIC,"M. chelonae; isolate 22, M. chelonae",0.25 µg/mL
same,MIC,M. mucogenium group; [17],0.25 µg/mL
same,MIC,M. mucogenium group; [18],0.25 µg/mL
same,MIC,M. mucogenium group; [19],1 µg/mL
same,MIC,M. mucogenium group; [20],0.5 µg/mL
same,MIC,M. mucogenium group; [21],1 µg/mL
same,MIC,M. mucogenium group; [22],0.5 µg/mL
same,MIC,M. mucogenium group; [23],0.5 µg/mL
same,MIC,M. mucogenium group; [24],1 µg/mL
same,MIC,M. mucogenium group; [25],1 µg/mL
same,MIC,M. mucogenium group; [26],0.25 µg/mL
same,MIC,"M. intracellulare; isolate 6, MAC",> 16 µg/mL
same,MIC,"M. intracellulare; isolate 7, MAC",> 16 µg/mL
same,MIC,"M. intracellulare; isolate 8, MAC",> 16 µg/mL
same,MIC,"M. intracellulare; isolate 9, MAC",> 16 µg/mL
same,MIC,"M. intracellulare; isolate 10, MAC",> 16 µg/mL
same,MIC,M. immunogenum group; [27],0.5 µg/mL
same,MIC,M. immunogenum group; [28],0.25 µg/mL
same,MIC,M. immunogenum group; [29],0.5 µg/mL
same,MIC,M. immunogenum group; [30],0.5 µg/mL
same,MIC,M. abscessus complex; [31],0.25 µg/mL
same,MIC,M. abscessus complex; [32],0.25 µg/mL
same,MIC,M. abscessus complex; [33],0.25 µg/mL
same,MIC,M. abscessus complex; [34],0.12 µg/mL
same,MIC,M. abscessus complex; [35],0.25 µg/mL
same,MIC,M. abscessus complex; [36],0.12 µg/mL
same,MIC,M. abscessus complex; [37],0.12 µg/mL
same,MIC,M. abscessus complex; [38],0.12 µg/mL
same,MIC,M. abscessus complex; [39],0.12 µg/mL
same,MIC,M. abscessus complex; [40],0.12 µg/mL
same,MIC,M. abscessus complex; [41],0.12 µg/mL
same,MIC,M. abscessus complex; [42],0.12 µg/mL
same,MIC,M. abscessus complex; [43],0.25 µg/mL
same,MIC,M. abscessus complex; [44],0.12 µg/mL
same,MIC,M. abscessus complex; [45],0.12 µg/mL
same,MIC,M. abscessus complex; [46],0.25 µg/mL
same,MIC,M. abscessus complex; [47],0.06 µg/mL
same,MIC,"M. chimaera; isolate 4, MAC",> 16 µg/mL
same,MIC,"M. chimaera; isolate 5, MAC",> 16 µg/mL
same,MIC50,[2],0.25 µg/mL
same,MIC90,[2],0.5 µg/mL
"COc1c(N2C[C@@H]3CCCN[C@@H]3C2)c(F)cc2c(=O)c(C(=O)O)cn(C3CC3)c12 [MXF, moxifloxacin]",MIC,"M. avium; isolate 1, MAC",2 µg/mL
same,MIC,"M. avium; isolate 2, MAC",0.25 µg/mL
same,MIC,"M. avium; isolate 3, MAC",4 µg/mL
same,MIC,M. smegmatis group; [3],≤ 0.06 µg/mL
same,MIC,M. smegmatis group; [4],0.25 µg/mL
same,MIC,M. fortuitum group; [5],≤ 0.06 µg/mL
same,MIC,M. fortuitum group; [6],≤ 0.06 µg/mL
same,MIC,M. fortuitum group; [7],≤ 0.06 µg/mL
same,MIC,M. fortuitum group; [8],≤ 0.06 µg/mL
same,MIC,M. fortuitum group; [9],0.12 µg/mL
same,MIC,M. fortuitum group; [10],0.25 µg/mL
same,MIC,M. fortuitum group; [11],0.12 µg/mL
same,MIC,M. fortuitum group; [12],≤ 0.06 µg/mL
same,MIC,M. fortuitum group; [13],0.12 µg/mL
same,MIC,M. fortuitum group; [14],0.12 µg/mL
same,MIC,M. fortuitum group; [15],0.12 µg/mL
same,MIC,M. fortuitum group; [16],0.12 µg/mL
same,MIC,M. arupense,> 16 µg/mL
same,MIC,"M. simiae; isolate 13, Other",4 µg/mL
same,MIC,"M. simiae; isolate 14, Other",2 µg/mL
same,MIC,"M. simiae; isolate 15, Other",8 µg/mL
same,MIC50,[1],2 µg/mL
same,MIC90,[1],8 µg/mL
same,MIC,"M. chelonae; isolate 18, M. chelonae",4 µg/mL
same,MIC,"M. chelonae; isolate 19, M. chelonae",8 µg/mL
same,MIC,"M. chelonae; isolate 20, M. chelonae",2 µg/mL
same,MIC,"M. chelonae; isolate 21, M. chelonae",> 16 µg/mL
same,MIC,"M. chelonae; isolate 22, M. chelonae",2 µg/mL
same,MIC,M. mucogenium group; [17],0.12 µg/mL
same,MIC,M. mucogenium group; [18],0.25 µg/mL
same,MIC,M. mucogenium group; [19],0.25 µg/mL
same,MIC,M. mucogenium group; [20],0.5 µg/mL
same,MIC,M. mucogenium group; [21],0.25 µg/mL
same,MIC,M. mucogenium group; [22],0.5 µg/mL
same,MIC,M. mucogenium group; [23],1 µg/mL
same,MIC,M. mucogenium group; [24],1 µg/mL
same,MIC,M. mucogenium group; [25],0.5 µg/mL
same,MIC,M. mucogenium group; [26],1 µg/mL
same,MIC,"M. intracellulare; isolate 6, MAC",2 µg/mL
same,MIC,"M. intracellulare; isolate 7, MAC",1 µg/mL
same,MIC,"M. intracellulare; isolate 8, MAC",2 µg/mL
same,MIC,"M. intracellulare; isolate 9, MAC",2 µg/mL
same,MIC,"M. intracellulare; isolate 10, MAC",0.5 µg/mL
same,MIC,M. immunogenum group; [27],8 µg/mL
same,MIC,M. immunogenum group; [28],4 µg/mL
same,MIC,M. immunogenum group; [29],16 µg/mL
same,MIC,M. immunogenum group; [30],16 µg/mL
same,MIC,M. abscessus complex; [31],8 µg/mL
same,MIC,M. abscessus complex; [32],8 µg/mL
same,MIC,M. abscessus complex; [33],16 µg/mL
same,MIC,M. abscessus complex; [34],16 µg/mL
same,MIC,M. abscessus complex; [35],4 µg/mL
same,MIC,M. abscessus complex; [36],16 µg/mL
same,MIC,M. abscessus complex; [37],8 µg/mL
same,MIC,M. abscessus complex; [38],16 µg/mL
same,MIC,M. abscessus complex; [39],8 µg/mL
same,MIC,M. abscessus complex; [40],4 µg/mL
same,MIC,M. abscessus complex; [41],8 µg/mL
same,MIC,M. abscessus complex; [42],4 µg/mL
same,MIC,M. abscessus complex; [43],8 µg/mL
same,MIC,M. abscessus complex; [44],8 µg/mL
same,MIC,M. abscessus complex; [45],8 µg/mL
same,MIC,M. abscessus complex; [46],4 µg/mL
same,MIC,M. abscessus complex; [47],4 µg/mL
same,MIC,"M. chimaera; isolate 4, MAC",4 µg/mL
same,MIC,"M. chimaera; isolate 5, MAC",2 µg/mL
same,MIC50,[2],2 µg/mL
same,MIC90,[2],16 µg/mL
